Reference: patent publication US20080207683A1, “BIARYL-S[…]-PYRAZOLO-PYRIDINE MODULATORS OF CATHEPSIN S” (priority 2007, published 2008)

target: T1, Human CatS (Homo sapiens, UniProt P25774); experiment: CatS inhibition of hydrolysis of fluorescent substrate Z-Val-Val-Arg-AFC; format: biochemical; details: not given
T1 construct: made in house; host or cells: Sf9 insect cells (baculovirus vector pFB+HT)
Description: Human CatS was cloned into pFB+HT (from Stratagene clone), expressed in Sf9 cells, and purified over a Ni column. Fractions were concentrated and activated at pH 4.0 for 6 hr and then purified over a thiopropylsepharose column and eluted with 1×TBS, 500 mM NaCl, 1 mM EDTA, 25 mM DTT pH 7.6. Glycerol (50%) was added in a 1:1 (vol/vol) ratio (25% glycerol final) and protein was stored at −80° C. in 5 μL aliquots. […] The increase in fluorescence over time was monitored using λexcitation=400 nm and λemission=505 nm.
In equation 1, v is the initial rate measured in the presence of [I]0, the inhibitor concentration, using an enzyme concentration [E]0. v0 is the initial rate measured in the absence of inhibitor.

T1 sequence (P25774 115-331): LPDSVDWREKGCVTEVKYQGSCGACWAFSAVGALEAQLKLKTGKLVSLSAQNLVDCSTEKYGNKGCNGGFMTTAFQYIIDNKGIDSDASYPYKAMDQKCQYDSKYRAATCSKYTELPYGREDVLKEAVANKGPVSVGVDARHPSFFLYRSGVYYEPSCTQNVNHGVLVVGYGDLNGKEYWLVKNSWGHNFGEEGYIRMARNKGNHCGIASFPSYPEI

Row | Ki | SMILES
1 | 188 nM | Cc1ccc2[nH]c([C@H](C)NC(=O)c3cccc(-c4cc(-c5nn(CCCN6CCCC6)c6c5CN(S(C)(=O)=O)CC6)ccc4Cl)c3)nc2c1 [Example 20, (S)-2′-Chloro-5′-[5-methanesulfonyl-1-(3-pyrrolidin-1-yl-propyl)-4,5,6,7-tetrahydro-1H-pyrazolo[4,3-c]pyridin-3-yl]-biphenyl-3-carboxylic acid [1-(5-methyl-1H-benzoimidazol-2-yl)-ethyl]-amide]

same assay, conditions: apparent Ki, Morrison equation fit of initial rates; 10 μM Z-Val-Val-Arg-AFC, pH 5.0, 1.5 nM CatS; read-out: CatS Ki^app

Row | Ki | SMILES
2 | 53.7 nM | O=C(NCCNc1ccc(OCC2CCCC2)cc1)c1cccc(-c2cc(-c3nn(CCCN4CCC(O)C4)c4c3CNCC4)ccc2Cl)c1 (stereo not shown) [Example 47, 2′-Chloro-5′-{1-[3-(3-hydroxy-pyrrolidin-1-yl)-propyl]-4,5,6,7-tetrahydro-1H-pyrazolo[4,3-c]pyridin-3-yl}-biphenyl-3-carboxylic acid [2-(4-cyclopentylmethoxy-phenylamino)-ethyl]-amide]
3 | 123 nM | Cc1ccc2[nH]c(C(C)NC(=O)c3cccc(-c4cc(-c5nn(CCCN6CCC(N7CCCC7=O)CC6)c6c5CN(S(C)(=O)=O)CC6)ccc4Cl)c3)nc2c1 (stereo not shown) [Example 35, 2′-Chloro-5′-(5-methanesulfonyl-1-{3-[4-(2-oxo-pyrrolidin-1-yl)-piperidin-1-yl]-propyl}-4,5,6,7-tetrahydro-1H-pyrazolo[4,3-c]pyridin-3-yl)-biphenyl-3-carboxylic acid [1-(5-methyl-1H-benzoimidazol-2-yl)-ethyl]-amide]
4 | 49.4 nM | CN(C)S(=O)(=O)c1cccc2c1N(CCNC(=O)c1cccc(-c3cc(-c4nn(CCCN5CCCC5)c5c4CN(S(C)(=O)=O)CC5)ccc3Cl)c1)CC2 [Example 10, 2′-Chloro-5′-[5-methanesulfonyl-1-(3-pyrrolidin-1-yl-propyl)-4,5,6,7-tetrahydro-1H-pyrazolo[4,3-c]pyridin-3-yl]-biphenyl-3-carboxylic acid [2-(7-dimethylsulfamoyl-2,3-dihydro-indol-1-yl)-ethyl]-amide]
5 | 317 nM | COc1ccc(NCCNC(=O)c2cccc(-c3cc(-c4nn(CCCN5CCCC5)c5c4CN(S(C)(=O)=O)CC5)ccc3Cl)c2)cn1 [Example 6, 2′-Chloro-5′-[5-methanesulfonyl-1-(3-pyrrolidin-1-yl-propyl)-4,5,6,7-tetrahydro-1H-pyrazolo[4,3-c]pyridin-3-yl]-biphenyl-3-carboxylic acid [2-(6-methoxy-pyridin-3-ylamino)-ethyl]-amide]
6 | 264 nM | CS(=O)(=O)N1CCc2c(c(-c3ccc(Cl)c(-c4cccc(C(=O)NCc5ncco5)c4)c3)nn2CCCN2CCC(N3CCCC3=O)CC2)C1 [Example 32, 2′-Chloro-5′-(5-methanesulfonyl-1-{3-[4-(2-oxo-pyrrolidin-1-yl)-piperidin-1-yl]-propyl}-4,5,6,7-tetrahydro-1H-pyrazolo[4,3-c]pyridin-3-yl)-biphenyl-3-carboxylic acid (oxazol-2-ylmethyl)-amide]
7 | 477 nM | CS(=O)(=O)N1CCc2c(c(-c3ccc(Cl)c(-c4cccc(C(=O)NCc5ncco5)c4)c3)nn2CCCN2CCC(O)C2)C1 (stereo not shown) [Example 29, 2′-Chloro-5′-{1-[3-(3-hydroxy-pyrrolidin-1-yl)-propyl]-5-methanesulfonyl-4,5,6,7-tetrahydro-1H-pyrazolo[4,3-c]pyridin-3-yl}-biphenyl-3-carboxylic acid (oxazol-2-ylmethyl)-amide]
8 | 27.3 nM | COc1ccc(NCCNC(=O)c2cccc(-c3cc(-c4nn(CCCN5CCC(N6CCCC6=O)CC5)c5c4CN(S(C)(=O)=O)CC5)ccc3Cl)c2)cc1 [Example 31, 2′-Chloro-5′-(5-methanesulfonyl-1-{3-[4-(2-oxo-pyrrolidin-1-yl)-piperidin-1-yl]-propyl}-4,5,6,7-tetrahydro-1H-pyrazolo[4,3-c]pyridin-3-yl)-biphenyl-3-carboxylic acid [2-(4-methoxy-phenylamino)-ethyl]-amide]
9 | 510 nM | CN(C)S(=O)(=O)c1ccc2c(c1)N(CCNC(=O)c1cccc(-c3cc(-c4nn(CCCN5CCC(O)C5)c5c4CNCC5)ccc3Cl)c1)CC2 (stereo not shown) [Example 46, 2′-Chloro-5′-{1-[3-(3-hydroxy-pyrrolidin-1-yl)-propyl]-4,5,6,7-tetrahydro-1H-pyrazolo[4,3-c]pyridin-3-yl}-biphenyl-3-carboxylic acid [2-(6-dimethylsulfamoyl-2,3-dihydro-indol-1-yl)-ethyl]-amide]
10 | 60.2 nM | CS(=O)(=O)N1CCc2c(c(-c3ccc(Cl)c(-c4cccc(C(=O)NCCNc5ccc(OCC6CCCC6)cc5)c4)c3)nn2CCCN2CCCC2)C1 [Example 5, 2′-Chloro-5′-[5-methanesulfonyl-1-(3-pyrrolidin-1-yl-propyl)-4,5,6,7-tetrahydro-1H-pyrazolo[4,3-c]pyridin-3-yl]-biphenyl-3-carboxylic acid [2-(4-cyclopentylmethoxy-phenylamino)-ethyl]-amide]
11 | 253 nM | COc1ccc(NCCNC(=O)c2cccc(-c3cc(-c4nn(CCCN5CCCC5)c5c4CN(S(C)(=O)=O)CC5)ccc3Cl)c2)cc1Cl [Example 4, 2′-Chloro-5′-[5-methanesulfonyl-1-(3-pyrrolidin-1-yl-propyl)-4,5,6,7-tetrahydro-1H-pyrazolo[4,3-c]pyridin-3-yl]-biphenyl-3-carboxylic acid [2-(3-chloro-4-methoxy-phenylamino)-ethyl]-amide]
12 | 75.4 nM | CC(C)(C)c1csc(CNC(=O)c2cccc(-c3cc(-c4nn(CCCN5CCCC5)c5c4CN(S(C)(=O)=O)CC5)ccc3Cl)c2)n1 [Example 22, 2′-Chloro-5′-[5-methanesulfonyl-1-(3-pyrrolidin-1-yl-propyl)-4,5,6,7-tetrahydro-1H-pyrazolo[4,3-c]pyridin-3-yl]-biphenyl-3-carboxylic acid (4-tert-butyl-thiazol-2-ylmethyl)-amide]
13 | 335 nM | CS(=O)(=O)N1CCc2c(c(-c3ccc(Cl)c(-c4cccc(C(=O)NCCNc5cccc6c5CCC6)c4)c3)nn2CCCN2CCCC2)C1 [Example 3, 2′-Chloro-5′-[5-methanesulfonyl-1-(3-pyrrolidin-1-yl-propyl)-4,5,6,7-tetrahydro-1H-pyrazolo[4,3-c]pyridin-3-yl]-biphenyl-3-carboxylic acid [2-(indan-4-ylamino)-ethyl]-amide]
14 | 231 nM | CC(=O)N1CCc2c(c(-c3ccc(Cl)c(-c4cccc(C(=O)NCc5nc6ccccc6s5)c4)c3)nn2CCCN2CCCC2)C1 [Example 38, 5′-[5-Acetyl-1-(3-pyrrolidin-1-yl-propyl)-4,5,6,7-tetrahydro-1H-pyrazolo[4,3-c]pyridin-3-yl]-2′-chloro-biphenyl-3-carboxylic acid (benzothiazol-2-ylmethyl)-amide]
15 | 117 nM | CS(=O)(=O)N1CCc2c(c(-c3ccc(Cl)c(-c4cccc(C(=O)NCc5nc6cc(F)ccc6s5)c4)c3)nn2CCCN2CCCC2)C1 [Example 25, 2′-Chloro-5′-[5-methanesulfonyl-1-(3-pyrrolidin-1-yl-propyl)-4,5,6,7-tetrahydro-1H-pyrazolo[4,3-c]pyridin-3-yl]-biphenyl-3-carboxylic acid (5-fluoro-benzothiazol-2-ylmethyl)-amide]
16 | 876 nM | CS(=O)(=O)N1CCc2c(c(-c3ccc(Cl)c(-c4cccc(C(=O)NCCNc5cccnc5)c4)c3)nn2CCCN2CCCC2)C1 [Example 7, 2′-Chloro-5′-[5-methanesulfonyl-1-(3-pyrrolidin-1-yl-propyl)-4,5,6,7-tetrahydro-1H-pyrazolo[4,3-c]pyridin-3-yl]-biphenyl-3-carboxylic acid [2-(pyridin-3-ylamino)-ethyl]-amide]
